Measurements published in patent US7468357B2, “Nucleosides with anti-hepatitis B virus activity” (Emory University, priority 1994, dated 2008).
Read-outs that look alike come from different tables or passages of the source.

How the values were obtained:
human DNA polymerase α = biological target: T1, human DNA polymerase α (Homo sapiens, UniProt P09884); experiment: Inhibition of human DNA polymerase α by triphosphates; assay type: biochemical; settings: read-out: DNA Pol α Ki
T1 sequence (P09884 1-1462): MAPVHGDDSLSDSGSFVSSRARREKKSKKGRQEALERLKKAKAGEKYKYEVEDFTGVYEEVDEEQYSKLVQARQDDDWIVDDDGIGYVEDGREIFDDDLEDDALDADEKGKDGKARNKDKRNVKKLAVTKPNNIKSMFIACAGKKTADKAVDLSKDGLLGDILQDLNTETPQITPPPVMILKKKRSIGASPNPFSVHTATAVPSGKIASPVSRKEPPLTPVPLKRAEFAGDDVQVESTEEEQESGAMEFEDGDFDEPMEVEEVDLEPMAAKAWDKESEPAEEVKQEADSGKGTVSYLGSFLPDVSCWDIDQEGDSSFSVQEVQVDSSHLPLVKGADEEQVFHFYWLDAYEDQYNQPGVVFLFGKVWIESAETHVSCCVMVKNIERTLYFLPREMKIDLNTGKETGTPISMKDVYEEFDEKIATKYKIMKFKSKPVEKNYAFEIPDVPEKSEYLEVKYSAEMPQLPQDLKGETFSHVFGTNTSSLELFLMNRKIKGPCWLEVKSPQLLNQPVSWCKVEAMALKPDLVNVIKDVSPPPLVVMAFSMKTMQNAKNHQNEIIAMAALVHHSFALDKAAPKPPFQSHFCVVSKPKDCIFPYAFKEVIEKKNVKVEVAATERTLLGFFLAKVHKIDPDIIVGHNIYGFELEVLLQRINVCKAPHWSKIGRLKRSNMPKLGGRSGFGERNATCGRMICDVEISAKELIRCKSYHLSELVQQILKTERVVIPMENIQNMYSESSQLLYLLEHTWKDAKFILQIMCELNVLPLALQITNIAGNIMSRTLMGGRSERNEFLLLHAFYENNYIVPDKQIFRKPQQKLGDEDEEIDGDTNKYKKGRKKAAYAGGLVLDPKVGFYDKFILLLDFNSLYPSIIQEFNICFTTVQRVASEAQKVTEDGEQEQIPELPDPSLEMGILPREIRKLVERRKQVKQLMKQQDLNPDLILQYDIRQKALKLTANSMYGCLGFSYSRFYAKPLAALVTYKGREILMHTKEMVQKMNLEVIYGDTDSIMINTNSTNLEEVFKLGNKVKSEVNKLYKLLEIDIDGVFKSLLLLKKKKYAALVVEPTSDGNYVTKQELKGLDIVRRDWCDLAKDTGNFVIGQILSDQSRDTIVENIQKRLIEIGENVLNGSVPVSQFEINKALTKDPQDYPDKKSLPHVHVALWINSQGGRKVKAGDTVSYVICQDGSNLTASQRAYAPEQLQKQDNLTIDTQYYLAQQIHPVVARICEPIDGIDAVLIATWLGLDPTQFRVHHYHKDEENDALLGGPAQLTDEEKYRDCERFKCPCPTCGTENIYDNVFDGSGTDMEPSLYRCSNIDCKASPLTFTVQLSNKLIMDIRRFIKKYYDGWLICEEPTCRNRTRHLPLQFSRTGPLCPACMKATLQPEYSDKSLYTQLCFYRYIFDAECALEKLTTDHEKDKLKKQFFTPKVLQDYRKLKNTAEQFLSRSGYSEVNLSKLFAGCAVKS

[1] = biological target: woodchuck hepatitis virus DNA polymerase (Woodchuck hepatitis B virus, UniProt P03160); experiment: Inhibition of woodchuck hepatitis virus DNA polymerase by triphosphates; assay type: biochemical; settings: read-out: WHB DNA Pol IC50
human DNA polymerase β = human DNA polymerase β (Homo sapiens, UniProt P06746); experiment: Inhibition of human DNA polymerase β by triphosphates; assay type: biochemical; settings: read-out: DNA Pol β Ki
Hepatitis B virus = experiment: Inhibition of HBV replication in transfected HepG-2 (2.2.15) cells (HBV virion DNA and replicative intermediates, blot hybridization); assay type: cell-based; settings: for Inhibition of HBV replication (depression of HBV virion DNA and HBV RI), in words: 2.2.15 cells; for Selectivity Index IC50/EC90 RI: cytotoxicity IC50 / RI EC90; for Selectivity Index IC50/EC90 Virion: cytotoxicity IC50 / virion EC90
Procedure: The assay used herein to evaluate the ability of the disclosed compounds to inhibit the replication of HBV is described in detail in Korba and Gerin, Antiviral Res. 19: 55-70 (1992). […] The toxicity and anti-HBV activity of (−)-β-L-2-hydroxymethyl-5-(5-fluorocytosin-1-yl)-1,3-oxathiolane ((−)-β-L-FTC) and β-D-2′,3′-dideoxycytidine (β-D-ddC) are included as controls. The other compounds disclosed herein can be evaluated similarly.
The antiviral evaluations were performed on two separate passages of cells, two cultures per passage (4 cultures total). All wells, in all plates, were seeded at the same density and at the same time.
(Korba and Gerin, Antiviral Res. 19: 55-70, 1992). The levels of integrated HBV DNA in each cellular DNA preparation (which remain constant on a per cell basis in these experiments) were used to calculate the levels of intracellular HBV DNA forms, thereby eliminating technical variations inherent in the blot hybridization assays.
(§1) Toxicity analyses were performed in order to assess whether any observed antiviral effects were due to a general effect on cell viability. The method used was based on the uptake of neutral red dye, a standard and widely used assay for cell viability in a variety of virus-host systems, including HSV (herpes simplex virus) and HIV. The test compounds were used in the form of 40 mM stock solutions in DMSO (frozen on dry ice). Daily aliquots of the test samples were made and frozen at −20° C. so that each individual aliquot would be subjected to a single freeze-thaw cycle. The daily test aliquots were thawed, suspended into culture medium at room temperature and immediately added to the cell cultures. The compounds were tested at 0.01 to 10 μM for antiviral activity. The compounds were tested for toxicity at concentrations from 1 to 300 μM.

[2] = Toxicity analysis by uptake of neutral red dye in 2.2.15 cell cultures; settings: human, Cytotoxicity IC50, Table 2; Hep G-2 (2.2.15) cells
Procedure: as §1
(§2) Toxicity analyses were performed in 96-well flat bottomed tissue culture plates. Cells for the toxicity analyses were cultured and treated with test compounds with the same schedule as used for the antiviral evaluations. Each compound was tested at 4 concentrations, each in triplicate cultures. Uptake of neutral red dye was used to determine the relative level of toxicity. The absorbance of internalized dye at […] (A510) was used for the quantitative analysis. Values are presented as a percentage of the average A510 values (± standard deviations) in 9 separate cultures of untreated cells maintained on the same 96-well plate as the test compounds.

[3] = tested on: 2.2.15 cells (HepG2 cells transformed with hepatitis virion); experiment: as above
Procedure: as §1, §2

[4] = Table 1, extracellular DNA, transfected HEPG-2 (2.2.15) cells, read-out: HBV viron EC90 ± SD
[5] = Table 1, replicative intermediates (intracellular DNA), transfected HEPG-2 (2.2.15) cells, read-out: HBV RI EC50 ± SD
[6] = Table 1, replicative intermediates (intracellular DNA), transfected HEPG-2 (2.2.15) cells, read-out: HBV RI EC90 ± SD
[7] = read-out: Cytotoxity IC50 ± SD, Table 1, neutral red dye uptake, 2.2.15 cells

Chain of woodchuck hepatitis virus DNA polymerase (P03160 whole entry): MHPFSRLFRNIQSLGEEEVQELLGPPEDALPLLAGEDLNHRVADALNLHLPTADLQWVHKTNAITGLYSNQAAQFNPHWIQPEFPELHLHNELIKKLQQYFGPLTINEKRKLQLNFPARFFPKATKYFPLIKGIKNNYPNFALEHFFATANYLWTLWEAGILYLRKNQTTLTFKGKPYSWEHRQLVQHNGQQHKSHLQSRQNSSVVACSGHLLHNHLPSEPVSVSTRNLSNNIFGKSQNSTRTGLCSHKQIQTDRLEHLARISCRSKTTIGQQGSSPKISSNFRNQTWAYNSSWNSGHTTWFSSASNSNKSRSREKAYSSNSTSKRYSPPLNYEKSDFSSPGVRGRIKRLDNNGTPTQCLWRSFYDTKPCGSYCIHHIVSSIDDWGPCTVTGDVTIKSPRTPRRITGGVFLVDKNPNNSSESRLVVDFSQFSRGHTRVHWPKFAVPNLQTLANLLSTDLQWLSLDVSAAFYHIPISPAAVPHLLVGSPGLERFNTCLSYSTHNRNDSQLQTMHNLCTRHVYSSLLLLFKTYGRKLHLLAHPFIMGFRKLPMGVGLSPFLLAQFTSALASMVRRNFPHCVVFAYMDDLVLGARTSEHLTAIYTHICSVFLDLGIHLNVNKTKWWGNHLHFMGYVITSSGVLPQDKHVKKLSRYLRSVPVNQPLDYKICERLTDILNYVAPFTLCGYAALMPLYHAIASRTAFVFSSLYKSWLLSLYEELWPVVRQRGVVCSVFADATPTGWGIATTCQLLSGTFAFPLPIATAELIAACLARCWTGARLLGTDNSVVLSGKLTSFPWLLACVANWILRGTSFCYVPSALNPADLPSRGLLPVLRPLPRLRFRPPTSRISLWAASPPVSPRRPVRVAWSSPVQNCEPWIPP

## Nc1nc(=O)n([C@@H]2CC[C@H](COP(=O)(O)OP(=O)(O)OP(=O)(O)O)O2)cc1F [β-L-5FDDCTP]
Human DNA polymerase α
  Ki: > 100 µM
[1]
  IC50: 2 µM
Human DNA polymerase β
  Ki: > 100 µM

## Cc1cn([C@@H]2CC(N=[N+]=[N-])[C@H](CO)O2)c(=O)[nH]c1=O (stereo partly drawn) [β-L-AZT, 1-(3-Azido-2-3-dideoxy-β-L-erythro-pentofuranosyl) thymine]
Hepatitis B virus; Hepatitis B virus, HepG2 2.2.15, read-out: HBV RI EC50, Table 2, replicative intermediates (intracellular DNA), transfected Hep G-2 (2.2.15) cells
  EC50: > 10 µM
Hepatitis B virus; Hepatitis B virus, HepG2 2.2.15, read-out: HBV Virion EC50, Table 2, extracellular DNA, transfected Hep G-2 (2.2.15) cells
  EC50: > 10 µM
[2]
  IC50: 1000 µM

## Cc1cn([C@@H]2C[C@@H](N=[N+]=[N-])[C@H](COP(=O)(O)OP(=O)(O)OP(=O)(O)O)O2)c(=O)[nH]c1=O [β-L-AZTPP]
Human DNA polymerase α
  Ki: > 100 µM
[1]
  IC50: 0.2 µM
Human DNA polymerase β
  Ki: > 100 µM

## Nc1ccn([C@@H]2CC[C@H](CO)O2)c(=O)n1 [β-L-DDC, 2′,3′-Dideoxy-β-L-cytidine]
Hepatitis B virus
  Inhibition of HBV replication (depression of HBV virion DNA and HBV RI), in words: potent inhibitors of HBV replication
Hepatitis B virus; Table 1
  Selectivity Index IC50/EC90 RI: 274
  Selectivity Index IC50/EC90 Virion: 448
Hepatitis B virus; Table 1, extracellular DNA, transfected HEPG-2 (2.2.15) cells, read-out: HBV viron EC50 ± SD
  EC50: 0.033 ± 0.003 µM
Hepatitis B virus; [4]
  EC90: 1.1 ± 0.2 µM
Hepatitis B virus; [5]
  EC50: 0.107 ± 0.012 µM
Hepatitis B virus; [6]
  EC90: 1.8 ± 0.2 µM
[3]; [7]
  IC50: 493 ± 64 µM

## Nc1nc(=O)n([C@@H]2CC[C@H](CO)O2)cc1F [β-L-FDDC, 2′,3′-Dideoxy-β-L-5-fluorocytidine]
Hepatitis B virus
  Inhibition of HBV replication (depression of HBV virion DNA and HBV RI), in words: potent inhibitors of HBV replication
Hepatitis B virus; Table 1
  Selectivity Index IC50/EC90 RI: 91
  Selectivity Index IC50/EC90 Virion: 1,460
Hepatitis B virus; [4]
  EC90: 0.3 ± 0.03 µM
Hepatitis B virus; [5]
  EC50: 2.8 ± 0.4 µM
Hepatitis B virus; [6]
  EC90: 4.8 ± 0.6 µM
[3]; [7]
  IC50: 438 ± 57 µM

## Nc1ncnc2c1ncn2[C@@H]1CC[C@H](COP(=O)(O)OP(=O)(O)OP(=O)(O)O)O1 [β-L-ddATP]
Human DNA polymerase α
  Ki: > 100 µM
[1]
  IC50: 2.1 µM
Human DNA polymerase β
  Ki: > 100 µM

## Nc1ncnc2c1ncn2[C@@H]1CC[C@H](CO)O1 [β-L-ddA]
Hepatitis B virus; Table 2, cytotoxicity IC50 / RI EC50
  Selectivity Index IC50/EC50 RI: 50
Hepatitis B virus; Table 2, cytotoxicity IC50 / virion EC50
  Selectivity Index IC50/EC50 Virion: 50
Hepatitis B virus; Table 2, extracellular DNA, transfected Hep G-2 (2.2.15) cells, read-out: HBV Virion EC50
  EC50: 5 µM
Hepatitis B virus; Table 2, replicative intermediates (intracellular DNA), transfected Hep G-2 (2.2.15) cells, read-out: HBV RI EC50
  EC50: 5 µM
[3]; read-out: Cytotoxicity IC50, Table 2, Hep G-2 (2.2.15) cells
  IC50: 250 µM
